For data set [1], the system named is cervical carcinoma (HeLa). In words: MTT antiproliferative assay, HeLa. Type of data set: cell-based, human. Conditions: 72 h. The source says: (§1) Ru3–Ru9 also show a certain selectivity for cancer cells over normal cells, and Ru2, Ru3, Ru5 and Ru9 show higher selectivity index (SI) values than the other complexes.
(§2) PA-BPP was then used to confirm the molecular targets of Ru5 by modifying it with a ‘minimalist’ biorthogonal handle-containing photo-cross-linker. Through our structure–activity relationship analysis and comparison with other ruthenium complexes utilizing phen as the auxiliary ligands with similar coordination structures (using cisplatin as a control), we propose that the β-carboline ligands play an important role in antiproliferative activity. To maintain the binding characteristics of the β-carboline moiety with the targeted biomolecules, we linked the photo-cross-linker to one of the auxiliary ligands of Ru5.

A further data set has as its system prostate cancer (PC3). In words: MTT antiproliferative assay, PC3. The data set is classed as cell-based, human. To be noted: 72 h.
From the text: as §1, §2

The test system of data set [2] is triple negative breast cancer (MDA-MB-231). Put plainly: MTT antiproliferative assay, MDA-MB-231. The data set is classed as cell-based, human. Conditions: 72 h.
From the text: as §1, §2

The test system of data set [3] is human lung fibroblast-like (HLF) cells. In words: MTT antiproliferative assay, HLF. Type of data set: cell-based. Conditions: 72 h.
From the text: as §1, §2

Data set [4] concerns the target ATPase (mitochondrial ATP synthase). Put plainly: Inhibition of the enzymatic activity of ATPase in vitro. To be noted: read-out: Inhibition constant (Ki). Type of data set: biochemical. Here is the method:
(§3) Figure 1. Validation of ATP5F1 as the molecular target of Ru5. (A) Proteins pulled down by streptavidin from A549 cells treated with Ru5a followed by PAL. The cells were treated with Ru5a (50 μM) for 12 h and irradiated with UV light for 20 min. (B) The top five peptides enriched by Ru5a-mediated PAL were identified with the assistance of SILAC-based chemoproteomic studies. H1F0: H1 histone family member 0; HIST4H4: histone cluster 4 H4; HIST3H2BB: histone cluster 3 H2B family member b; ATP5F1E: ATP synthase F1 subunit epsilon; HIST1H2AJ: histone cluster 1 H2A family member J. (C) Pull-down western blotting analysis of ATPase in A549 cells treated with Ru5a. (D) Cellular Ru content in cells treated with Ru5/Ru5a (20 μM, 12 h) measured by ICP-MS. (E) Impact of Ru5/Ru5a (10 μM) on the thermal stability of ATP5F1 measured by CETSA. (F) Impact on the anticancer activities of Ru5/Ru5a against wild type and ATPase knocking down (by siRNA) A549 cells. The relative cellular viability was calculated using the cells without drug treatment in each group as the control group. (G) Inhibition of Ru5/Ru5a on the enzymatic activity of ATPase. (-)-blebbistatin was used as the positive control. (H) Molecular docking of Ru5 with ATPase (PDB: 3ZIA). The red dashes indicate the hydrogen bonds formed between Ru5 and the amino acid residues (SER38 and GLN39). The yellow dashes indicate the hydrophobic interaction between Ru5 and the amino acid residues (ASN15 and GLN19). Data are presented as means ± SD from three independent experiments. TEXT PRINTED IN THE PICTURE: (B) Ru5a: Log2 (fold change) (Ru5a/DMSO): 1.43 (Protein name: H1F0); Log2 (fold change) (Ru5a/DMSO): 1.23 (Protein name: HIST4H4); Log2 (fold change) (Ru5a/DMSO): 1.22 (Protein name: HIST3H2BB); Log2 (fold change) (Ru5a/DMSO): 1.21 (Protein name: ATP5F1E); Log2 (fold change) (Ru5a/DMSO): 1.12 (Protein name: HIST1H2AJ) DOUBTS OF THE COPYIST ABOUT THIS PICTURE: Panel B: the table rows are proteins enriched by Ru5a, not separate substances. […]

The next data set relates to mitochondria. Put plainly: Subcellular Ru content by ICP-MS. To be noted: 20 μM, 12 h. Type of data set: cell-based. On the procedure: as §3, with “GLN39).” for “GLN39). The yellow dashes indicate the hydrophobic interaction between Ru5 and the amino acid residues (ASN15 and GLN19). Data are presented as means ± SD from three independent experiments. TEXT PRINTED IN THE PICTURE: (B) Ru5a: Log2 (fold change) (Ru5a/DMSO): 1.43 (Protein name: H1F0); Log2 (fold change) (Ru5a/DMSO): 1.23 (Protein name: HIST4H4); Log2 (fold change) (Ru5a/DMSO): 1.22 (Protein name: HIST3H2BB); Log2 (fold change) (Ru5a/DMSO): 1.21 (Protein name: ATP5F1E); Log2 (fold change) (Ru5a/DMSO): 1.12 (Protein name: HIST1H2AJ) DOUBTS OF THE COPYIST ABOUT THIS PICTURE: Panel B: the table rows are proteins enriched by Ru5a, not separate substances.”

For data set [5], the system named is A549 cells. In words: Anticancer activity in wild type vs ATPase siRNA knockdown cells. Type of data set: cell-based, human. To be noted: compared to wild-type cells. On the procedure:
as §3, with “GLN39).” for “GLN39). The yellow dashes indicate the hydrophobic interaction between Ru5 and the amino acid residues (ASN15 and GLN19). Data are presented as means ± SD from three independent experiments. TEXT PRINTED IN THE PICTURE: (B) Ru5a: Log2 (fold change) (Ru5a/DMSO): 1.43 (Protein name: H1F0); Log2 (fold change) (Ru5a/DMSO): 1.23 (Protein name: HIST4H4); Log2 (fold change) (Ru5a/DMSO): 1.22 (Protein name: HIST3H2BB); Log2 (fold change) (Ru5a/DMSO): 1.21 (Protein name: ATP5F1E); Log2 (fold change) (Ru5a/DMSO): 1.12 (Protein name: HIST1H2AJ) DOUBTS OF THE COPYIST ABOUT THIS PICTURE: Panel B: the table rows are proteins enriched by Ru5a, not separate substances.”

The subject of data set [6] is A549 cells. In words: Wound healing and transwell migration assays. Type of data set: cell-based, human. Conditions: 5 μM. Here is the method:
Figure 4. Ru5 induces mitophagy and ferroptosis and inhibits EMT in vitro. (A) TEM images of A549 cells treated with vehicle (1% DMSO) or Ru5 (10 μM, 12 h). Red rectangles represent the region enlarged. Scale bar: 5 μm and 500 nm (enlarged). (B) The morphological examination of mitochondria in A549 cells treated with Ru5 (10 μM) for the indicated time intervals. MTG: λex = 514 nm; λem = 540 ± 20 nm. LTDR: λex = 633 nm; λem = 700 ± 20 nm. Scale bar: 20 μm. (C) Western blotting analysis showing the impact of Ru5 (24 h) on the expression of proteins related to mitochondrial dysfunction and ferroptosis. (D and E) The impact of different inhibitors on antiproliferative activity of Ru5 (24 h). (F) RT-qPCR analysis of EMT-related genes in A549 cells after Ru5 (10 μM, 12 h) treatment. (G) The impact of Ru5 (5 μM) on the migration of A549 cells was measured by a wound healing assay. Scale bar: 100 μm. (H) Quantitative analysis of the impact of Ru5 on wound healing. (I) Selective images of the impact of Ru5 (5 μM, 48 h) on the migration of A549 cells detected by transwell assay. Scale bar: 100 μm. […] Firstly, real-time quantitative polymerase chain reaction (RT-qPCR) experiments (Fig. 4F) confirm that Ru5 can down-regulate genes including CDH1 (cadherin 1), FN1 (fibronectin 1) and MMP2 (matrix metallopeptidase 2).

The results in this text go back to PMC11304990, “Identification of mitochondrial ATP synthase as the cellular target of Ru-polypyridyl-β-carboline complexes by affinity-based protein profiling” (National Science Review, 2024).

As to `F[P-](F)(F)(F)(F)F.F[P-](F)(F)(F)(F)F.[Ru+2].c1ccc2c(c1)[nH]c1c(-c3ncc[nH]3)nccc12.c1cnc2c(c1)ccc1cccnc12.c1cnc2c(c1)ccc1cccnc12` [Ru5], the half-inhibitory concentration (IC50) stood at 3.1 ± 0.7 µM in data set [1], 2.7 ± 0.4 µM in the data set on prostate cancer (PC3), 7.7 ± 0.2 µM in data set [2] and 33.9 ± 0.2 µM in data set [3]. Besides, in data set [4], the inhibitory constant (Ki) came to 6.2 ± 1.4 µM. The “Subcellular location (cellular Ru content)” value with mitochondria is listed as “mainly located in mitochondria”. Moreover, in the data set with A549 cells [5], the “Effect of siRNA-mediated knockdown of ATPase on anticancer effects” value was “alleviates”. For the same compound, the “Migration rates of A549 cells” value in the data set on A549 cells [6] is on record as “markedly decrease”.
